Assay results from PMC6508953 (Cell chemical biology, 2017).

Legend:
[1] = system: BMK cells
[2] = system: primary embryonic mouse brain cortical neurons; experiment: Glutamate excitotoxicity, lactate dehydrogenase release; format: cell-based
[3] = system: Bax; format: biochemical; conditions: 40 μM
[4] = system: HCT-116 cells; experiment: Immunofluorescence for activated Bax; format: cell-based, human; conditions: 10 μM for 3 hr before ActD for 24 hr, HCT-116 WT
[5] = system: HCT-116 cells; conditions: 5 or 10 μM pretreatment; WT, Bax-/- and Bak-/- HCT-116 cells; actinomycin D
[6] = system: Bax; experiment: Bax:Bax FRET oligomerization assay; format: biochemical, human; conditions: 10 μM, liposomes and tBid
[7] = target: T1, Bax (Homo sapiens, UniProt Q07812); experiment: Bax binding to mitochondria by differential centrifugation; format: biochemical; conditions: preincubation of Bax or mitochondria with compound
[8] = target: T1, Bax; experiment: tBid/Bax-mediated liposome permeabilization; conditions: for IC50: read-out: IC50, concentration of compound required to inhibit 50% of the maximal dye release, liposomes, tBid and Bax, ANTS/DPX release
[9] = target: T1, Bax; experiment: DSS chemical crosslinking of Bax oligomers in liposomes, immunoblot; format: biochemical; conditions: for large oligomers of Bax (DSS crosslinking): high concentrations, compared with positive control Bcl-XL
[10] = system: Bax; experiment: Bax:membrane FRET; format: biochemical, human; conditions: 10 μM preincubated with 20 nM Alexa568-Bax, 20 nM BIM, DiD liposomes
[11] = target: T1, Bax; conditions: not told

T1 sequence (Q07812 whole entry): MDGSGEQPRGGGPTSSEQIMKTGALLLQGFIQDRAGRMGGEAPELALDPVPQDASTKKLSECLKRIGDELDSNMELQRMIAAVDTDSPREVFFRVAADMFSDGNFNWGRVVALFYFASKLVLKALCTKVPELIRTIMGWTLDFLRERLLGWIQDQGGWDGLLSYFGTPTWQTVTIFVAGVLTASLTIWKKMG

SMILES: COCCOCOc1ccc2c(c1)O[C@H](CN)[C@H]2N(Cc1ccc(Br)cc1)C(=O)[C@H](Cc1ccccc1)NC(=O)c1ccccc1 [MSN-125]
- survival and growth after STS treatment and replating ([1]; 5 μM compound, BMK cells, staurosporine): conferred long-term survival and growth
- survival and growth after ActD treatment and replating ([1]; 5 or 10 μM pretreatment, WT, Bax-/- and Bak-/- BMK cells, 75 nM ActD): conferred survival
- neuronal damage after glutamate excitotoxicity (LDH release) ([2]; 5 μM added directly after 30 min of 25 or 100 μM glutamate, read after 24 hr): substantially reduced neuronal damage
- neuronal damage by compound alone ([2]; 5 μM, 24 hr, no glutamate): did not result in neuronal damage
- disulfide crosslinks of double-cysteine Bax L59C/L76C and L59C/M79C [3]: not inhibited by MSN-125
- disulfide crosslinking of Bax-L63C with Bax-A112C ([3]; IVT and TNT systems): not inhibited by MSN-125
- Bax-6A7 positivity (exposure of N-terminal Bax epitope) after ActD [4]: prevented
- cytochrome c release from mitochondria in cells after ActD [4]: prevented
- survival and growth after ActD treatment and replating [5]: conferred survival
- FRET between DAC-Bax-134C and NBD-Bax-126C (Bax oligomerization) [6]: reduced FRET
- Bax binding to mitochondria [7]: did not inhibit Bax binding to mitochondria
- concentration-dependent inhibition of liposome permeabilization by tBid and Bax ([8]; individual assays, normalized to reactions without compound): inhibited dye release from liposomes in a concentration-dependent fashion
- IC50 [8]: ~4000 nM
- large oligomers of Bax (DSS crosslinking) [9]: inhibited large oligomers of Bax to a similar extent as the positive control Bcl-XL
- Bax dimerization (DSS crosslinking) ([9]; highest concentration tested): inhibited Bax dimerization to a limited extent

SMILES: NCCCN(Cc1ccc(Br)cc1)C(=O)[C@H](Cc1ccccc1)NC(=O)c1ccccc1 [DAN004]
- protection against ActD treatment ([1]; sub-toxic doses): did not confer protection against ActD treatment
- Bax binding to membranes by FRET [10]: did not inhibit Bax binding to membranes
- IC50 [8]: ~700 nM
- large oligomers of Bax (DSS crosslinking) [9]: inhibited large oligomers of Bax to a similar extent as the positive control Bcl-XL
- inhibition of heat-activated Bax-mediated liposome permeabilization [11]: inhibited heat-activated Bax-mediated liposome permeabilization equivalently
